According to publication PMC8873228, “In-depth comparison of the metabolic and pharmacokinetic behaviour of the structurally related synthetic cannabinoids AMB-FUBINACA and AMB-CHMICA in rats” (Communications Biology, 2022):
Entries after “also recorded” stand apart in the source; their conditions may differ. Where two headings read alike, the source gives them in different places.

Assays:
[1] = Quantification of parent compounds and O-demethyl metabolites in rat brain, liver, kidney, serum and urine by UHPLC-HRMS after intraperitoneal injection; format: in vivo, male Sprague-Dawley rats; conditions: 1 mg/kg i.p.; for concentration at 30 min: 30 min after injection
Procedure: 8 male Sprague-Dawley rats (8 weeks old, weighing between 385 and 425 g) were used as animal models (Janvier Labs, Le Genest-Saint-Isle, France). Animals were housed individually in polypropylene plastic cages under controlled temperature (24 ± 2 °C) and lighting conditions (12 h:12 h; lights ON at 8 AM), with ad libitum access to food and water. Before SCRA injection, animals were handled and habituated to the experimental room for 1 week. All the experiments were approved by the Committee of Ethics and Animal Experimentation of Universitat Jaume I (2019/VSC/PEA/048) and treated throughout according to the European Union Council Directive of June 3rd, 2010 (6106/1/10 REV1).
SCRAs were dosed intraperitoneally at 1 mg/kg. This dose was selected based on similar studies reported in literature. The solution used for injection was prepared at 1 mg/mL in physiological saline solution containing 5% ethanol. Between 385 and 425 µL of that solution were injected depending on animal weight. Blood (serum), liver, brain, and kidney samples were dissected 15, 30, and 180 min after injection (previously anesthetised with CO2 and decapitated immediately). Blood was collected mainly from carotid arteries and jugular veins and kept at room temperature for 30 min to elicit coagulation. Then, blood was centrifuged 10 min at 2000 rcf at 4 °C in order to separate serum from sedimented clot. Liver, kidney, and brain were rapidly dissected and snap-freezing in liquid nitrogen. One animal was used for each dissection time. Additional serum, liver, brain, and kidney samples were obtained from an animal 48 h after being SCRA-dosed, and used as control. Urine samples were collected at 30, 60, 90, 120, 180, 240, 300, and 360 min, together with an additional sample at 24 h (composite urine sample between 360 min and 24 h, collected from animal dissected at 48 h). Urine samples were obtained from the bottom of the cage at the indicated time. Additionally, urine sample collected from one of the animals prior to injection was used as control. Samples were snap-frozen in liquid nitrogen after collection, and preserved at −23 °C until analysis.
Solid samples (brain, liver, and kidney) were crushed with dry ice using an electric grinder. 0.1 g were accurately weighed (±0.1 mg) in 1.5 mL polypropylene tubes, and 0.3 mL of acetonitrile acidified with 1% of formic acid were added for extraction. After that, samples were sonicated for 5 min, followed by 30 min of vortex agitation. Samples were then frozen for 30 min in order to increase protein removal. Finally, they were centrifuged at 12,500 rfc during 15 min, and the supernatant was 10-fold diluted with ultrapure water for UHPLC-HRMS analysis.
Similarly to solid samples, samples were frozen for 30 min, centrifuged at 12,500 rfc for 15 min, and the supernatant 10-fold diluted with ultrapure water for UHPLC-HRMS analysis.
For parent compounds and O-demethyl metabolites estimated quantification, a calibration line in solvent from 2.5 to 250 ng/mL was included in each batch analysis, as well as different quality control samples (QCs) prepared with blank extracts and spiked at 200 ng/mL for evaluating matrix effect and apply a correction factor.
Samples were analysed using an Acquity ultra-performance liquid chromatography (UPLC) system (Waters Corp, Mildford, MA, USA) coupled to a Xevo G2 QTOF (Waters Corp, Manchester, UK) mass spectrometer with quadrupole time-of-flight (QTOF) hybrid mass analyser.
Chromatographic separation was performed using a Cortecs T3 100 ×2.1 mm, 1.6 µm particle size analytical column (Waters Corp, Wexford, Ireland), maintained at 40 °C. […] Injection volume was 50 µL.

pooled human hepatocytes = conditions: AMB-FUBINACA incubated with pooled human hepatocytes; cited from earlier work
[2] = 15 min after injection, one sample, estimated concentration, 1 mg/kg
[3] = male, Sprague-Dawley, brain, ip, 1 mg/kg, 15 min after injection, one sample, estimated concentration, read-out: Brain concentration
[4] = male, Sprague-Dawley, brain, ip, 1 mg/kg, one sample, estimated concentration, read-out: Brain concentration
[5] = male, Sprague-Dawley, brain/serum, ip, read-out: Brain/serum ratio, tissue (ng/g)/serum (ng/mL)
[6] = male, Sprague-Dawley, kidney, ip, 1 mg/kg, 15 min after injection, one sample, estimated concentration, read-out: Kidney concentration
[7] = male, Sprague-Dawley, kidney, ip, 1 mg/kg, one sample, estimated concentration, read-out: Kidney concentration
[8] = male, Sprague-Dawley, kidney/serum, ip, read-out: Kidney/serum ratio, tissue (ng/g)/serum (ng/mL)
[9] = male, Sprague-Dawley, liver, ip, 1 mg/kg, 15 min after injection, one sample, estimated concentration, read-out: Liver concentration
[10] = male, Sprague-Dawley, liver, ip, 1 mg/kg, one sample, estimated concentration, read-out: Liver concentration
[11] = male, Sprague-Dawley, liver, ip, 1 mg/kg, 180 min after injection, one sample, estimated concentration, read-out: Liver concentration
[12] = male, Sprague-Dawley, liver/serum, ip, read-out: Liver/serum ratio, tissue (ng/g)/serum (ng/mL)
[13] = male, Sprague-Dawley, liver/serum, ip, 180 min, read-out: Liver/serum ratio, tissue (ng/g)/serum (ng/mL)
[14] = male, Sprague-Dawley, serum, ip, 1 mg/kg, 15 min after injection, one sample, estimated concentration, read-out: Serum concentration
[15] = male, Sprague-Dawley, serum, ip, 1 mg/kg, one sample, estimated concentration, read-out: Serum concentration
[16] = male, Sprague-Dawley, serum, ip, 1 mg/kg, 180 min after injection, one sample, estimated concentration, read-out: Serum concentration
[17] = male, Sprague-Dawley, kidney, ip, 1 mg/kg, 180 min after injection, one sample, estimated concentration, read-out: Kidney concentration
[18] = 48 h after injection, one sample, estimated concentration, 1 mg/kg

Row | Structure (SMILES) | Brain concentration [1, 2] | concentration at 15 min [1, 3] | concentration at 30 min [1, 4] | Kp at 15 min [1, 5] | Kp at 30 min [1, 5] | concentration at 15 min [1, 6] | concentration at 30 min [1, 7] | Kp at 15 min [1, 8] | Kp at 30 min [1, 8] | concentration at 15 min [1, 9] | concentration at 30 min [1, 10] | concentration at 180 min [1, 11] | Kp at 15 min [1, 12] | Kp at 30 min [1, 12] | Kp at 180 min [1, 13] | concentration at 15 min [1, 14] | concentration at 30 min [1, 15] | concentration at 180 min [1, 16] | Liver concentration [1, 2] | concentration at 180 min [1, 17] | also measured
1 | COC(=O)C(NC(=O)c1cn(CC2CCCCC2)c2ccccc12)C(C)C (stereo not drawn) [AMB-CHMICA] | 21.3 ng/g | 21 ng/g | 20.7 ng/g | 0.47 | 0.31 | 36.5 ng/g | 66 ng/g | 0.81 | 1 | 846 ng/g | 874 ng/g | < 5 ng/g | 18.8 | 13.3 | 1.18 | 45.1 ng/mL | 65.9 ng/mL | 3.93 ng/mL |  |  | Liver concentration ([1]; 180 min after injection, one sample, estimated concentration, 1 mg/kg): 4.64 ng/g
2 | COC(=O)C(NC(=O)c1nn(Cc2ccc(F)cc2)c2ccccc12)C(C)C (stereo not drawn) [AMB-FUBINACA] | 57.2 ng/g | 57 ng/g | 18.4 ng/g | 4.38 | 6.05 | 42.6 ng/g | 16.4 ng/g | 3.27 | 5.42 | 7 ng/g | 4.59 ng/g |  | 0.56 | 1.52 |  | 13 ng/mL | 3.03 ng/mL |  | 7.25 ng/g | 3.36 ng/g | Liver concentration ([1]; 180 min after injection, one sample, estimated concentration): no longer detected; Blood-brain barrier permeability compared by brain/serum concentration ratio ([1]; at measured time points, versus AMB-CHMICA, 1 mg/kg): higher permeability than AMB-CHMICA (up to ten times); also recorded: around ten-fold more permeable than AMB-CHMICA; concentration at 180 min ([1]; male, Sprague-Dawley, brain, ip, 1 mg/kg, 180 min after injection, one sample, estimated concentration, read-out: Brain concentration): 2.64 ng/g
3 | CC(C)C(NC(=O)c1nn(Cc2ccc(F)cc2)c2ccccc12)C(=O)O (stereo not drawn) [O-demethyl AMB-FUBINACA] |  |  | 3.83 ng/g |  | 0.05 | 12.5 ng/g | 27.4 ng/g | 0.5 | 0.36 | 110 ng/g | 356 ng/g | 265 ng/g | 4.47 | 4.63 | 1.94 | 25 ng/mL | 76.8 ng/mL | 136 ng/mL | 111 ng/g | 43.7 ng/g | Serum concentration [1, 2]: 24.9 ng/mL; Urine concentration ([1]; 24 h (composite urine 360 min to 24 h)): 7.33 ng/mL; Liver concentration [1, 18]: 31.49 ng/g; Serum concentration [1, 18]: 5.72 ng/mL; Kp at 180 min ([1]; male, Sprague-Dawley, kidney/serum, ip, 180 min, read-out: Kidney/serum ratio, tissue (ng/g)/serum (ng/mL)): 0.32; concentration at 48 h ([1]; male, Sprague-Dawley, liver, ip, 1 mg/kg, 48 h after injection, one sample, estimated concentration, read-out: Liver concentration): 31 ng/g; concentration at 48 h ([1]; male, Sprague-Dawley, serum, ip, 1 mg/kg, 48 h after injection, one sample, estimated concentration, read-out: Serum concentration): 6 ng/mL; concentration at 180 min ([1]; male, Sprague-Dawley, urine, ip, 1 mg/kg, 180 min, read-out: Urine concentration): 5.78 ng/mL; concentration at 300 min ([1]; male, Sprague-Dawley, urine, ip, 1 mg/kg, 300 min): 1.13 ng/mL; Incubation time after which the O-demethyl metabolite was the major compound in incubation media (pooled human hepatocytes): 2 to 3 min
